Where two headings read alike, the source gives them in different places.
What was measured:
[1] = Screening of CDs and CD derivatives for ability to dissolve cholesterol in water (HPLC); assay type: physicochemical; conditions: for Concentrations of Cholesterol in CDs Solution: 5 days at ambient, ND = not detectable
Description: Purpose: To determine the level of cholesterol that can be dissolved in water when 10 different CDs and their derivatives were added at three concentrations.
All CD solutions were prepared with starting 20% (w/v) solutions by accurately adding about 800 mg CDs in 4 milliliter water, 1% and 10% were diluted from this 20% solution to 2 mL for each sample preparation experiment.
Cholesterol was added accurately to all CD water solutions at about 40 mg/mL or about 80 mg per 2 mL. This amount of cholesterol was enough to fully saturate the CD solutions with white settlements or floating or both. All samples were conditioned at ambient by shaking using a rotator for 5 days.
After the equilibration with shaking for 5 days at ambient, the clear or semi-clear portion was filtered with 0.2 μm filter. 50 μL of the filtered solution was diluted with 450 μL methanol (10×) for HPLC analysis. NOVAPAK phenyl column (7.6 cm by 3.9 mm I.D.) was used with a mobile phase of acetonitrile: water (70:30) at a flow rate of 0.5 ml/min and detection at UV at 210 nm.

[2] = cited from earlier work; for Absorbance (600 nm), increase due to cholesterol dissolved by CDs: aqueous solution at 37° C., concentration of CDs 1.0 × 10^−2 M; for Ability to form soluble complex with cholesterol in aqueous solution (in words): 37° C., CDs 1.0 × 10^−2 M
[3] = tested on: pterygium patients with dry eye or with no dry eye; assay: PSLQ ocular symptom score, further analysis by dry eye condition; assay type: in vivo, human; conditions: any timepoint
Text: These ocular symptoms are often observed in MGD patients. Scores of these symptoms were graded by patients as part of PSLQ questionnaires. (1) Dry eye patients vs. Non-dry eye patients (based upon patients' medical history) with the combined nintedanib-treated and vehicle-treated groups. […] The pterygium patients with dry eye condition was compared with pterygium patients with no dry eye condition. In this comparison, all pterygium patients with dry eye condition in the drug and vehicle treated group was combined and the same was done for pterygium patients with no dry eye condition. Number of data points for each group were N=17 for dry eye and N=18 for no dry eye. […] Pterygium patients with dry eye condition had higher baseline score and had bigger reduction from baseline of ocular symptom score during treatment period when compared to pterygium patients with no dry eye condition. (2) Nintedanib vs. Vehicle for dry eye patients (based upon patients' medical history).

[4] = tested on: Patients with Primary or Recurrent Pterygium
Description: A Phase 2a Multicenter, Randomized, Vehicle-Controlled, Dose Escalating Study was carried out to evaluate the Safety, Efficacy and Pharmacokinetics of Nintedanib Ophthalmic Solution in Patients with Primary or Recurrent Pterygium. The multicenter, randomized, double-masked, vehicle-controlled, parallel study was conducted with 28 days three times a day (TID) repeat ocular dosing of vehicle and 0.2% nintedanib, followed by 5-month post-dosing observation.
Pterygium patients often have meibomian gland atrophy and clinical signs and symptoms of MGD, including ocular pain, itchy, foreign body sensation, redness, sensitivity to light and […]. In the Phase II clinical trial, pterygia patients were asked 15 questions on ocular symptom, vision-related functioning and quality of life via Pterygium Symptom and Life Quality (PSLQ) questionnaires.
PSLQ analyses were performed for 4 average category scores; Overall, Ocular Symptoms, Vision-Related Functioning, and Quality of Life Impact.

| Ability to dissolve cholesterol in water (in words) [1] | Concentrations of Cholesterol in CDs Solution ([1]; CD 1% (w/v) in water) [ng/mL] | Compound | Absorbance (600 nm), increase due to cholesterol dissolved by CDs [2] | Ability to form soluble complex with cholesterol in aqueous solution (in words) [2] | other results |
| --- | --- | --- | --- | --- | --- |
| extremely low levels | – | 2-hydroxypropyl-gamma-cyclodextrin [HP-GCD, reference compound] | – | – | Concentrations of Cholesterol in CDs Solution ([1]; CD 10% (w/v) in water): 3000 ng/mL; Concentrations of Cholesterol in CDs Solution ([1]; CD 20% (w/v) in water): 11000 ng/mL |
| the best | – | COC[C@H]1O[C@@H]2O[C@H]3[C@H](O)[C@@H](OC)[C@@H](O[C@H]4[C@H](O)[C@@H](OC)[C@@H](O[C@H]5[C@H](O)[C@@H](OC)[C@@H](O[C@H]6[C@H](O)[C@@H](OC)[C@@H](O[C@H]7[C@H](O)[C@@H](OC)[C@@H](O[C@H]8[C@H](O)[C@@H](OC)[C@@H](O[C@H]1[C@H](O)[C@H]2OC)O[C@@H]8COC)O[C@@H]7COC)O[C@@H]6COC)O[C@@H]5COC)O[C@@H]4COC)O[C@@H]3COC [DM-BCD, heptakis (2,6-di-O-methyl)-beta-cyclodextrin] | 0.336 | – | – |
| the best | 150000 | random methyl-beta-cyclodextrin [M-BCD] | – | – | – |
| about half lower | 30000 | OC[C@H]1O[C@H](O[C@H]2[C@H](O)[C@@H](O)[C@@H](OC[C@H]3O[C@@H]4O[C@H]5[C@H](O)[C@@H](O)[C@@H](O[C@H]6[C@H](O)[C@@H](O)[C@@H](O[C@H]7[C@H](O)[C@@H](O)[C@@H](O[C@H]8[C@H](O)[C@@H](O)[C@@H](O[C@H]9[C@H](O)[C@@H](O)[C@@H](O[C@H]%10[C@H](O)[C@@H](O)[C@@H](O[C@H]3[C@H](O)[C@H]4O)O[C@@H]%10CO)O[C@@H]9CO)O[C@@H]8CO)O[C@@H]7CO)O[C@@H]6CO)O[C@@H]5CO)O[C@@H]2CO)[C@H](O)[C@@H](O)[C@@H]1O [6-AM-BCD, 6-O-alpha-maltosyl-beta-cyclodextrin] | – | – | – |
| – | 2000 | sulfobutylated beta-cyclodextrin [SBE-BCD] | – | – | Concentrations of Cholesterol in CDs Solution ([1]; CD 10% (w/v) in water): 30000 ng/mL; Concentrations of Cholesterol in CDs Solution ([1]; CD 20% (w/v) in water): 150000 ng/mL |

The remaining lines, values behind:

| Compound | Ability to dissolve cholesterol in water (in words) [1] | Concentrations of Cholesterol in CDs Solution ([1]; CD 1% (w/v) in water) [ng/mL] | Absorbance (600 nm), increase due to cholesterol dissolved by CDs [2] | Ability to form soluble complex with cholesterol in aqueous solution (in words) [2] | other results |
| --- | --- | --- | --- | --- | --- |
| COC(=O)c1ccc2c(c1)NC(=O)/C2=C(\Nc1ccc(N(C)C(=O)CN2CCN(C)CC2)cc1)c1ccccc1 [Nintedanib 0.2%, nintedanib] | – | – | – | – | PSLQ ocular symptom score, Nintedanib 0.2% vs Vehicle (in words) [3]: no statistically significant differences |
| 2-Hydroxypropyl-beta-cyclodextrin [2-HP-β-CD] | substantial ability to dissolve cholesterol | 10000 | 0.01 | weak ability | PSLQ scores compared to the baseline (in words) ([4]; 2-HP-β-CD-treated group): significant improvements; PSLQ Average Vision-Related Functioning Score, Mean ([4]; Baseline, N = 23, SD 0.80, Modified Intent-to-Treat Population): 0.57; PSLQ Average Vision-Related Functioning Score, Change from Baseline, Mean ([4]; Week 2, N = 23, SD 0.65, p-value 0.067 (one sample t-test)): −0.27; PSLQ Average Vision-Related Functioning Score, Change from Baseline, Mean ([4]; Week 4, N = 23, SD 0.65, p-value 0.003): −0.48; PSLQ Average Vision-Related Functioning Score, Change from Baseline, Mean ([4]; Week 8, N = 23, SD 0.62, p-value 0.004): −0.43; PSLQ Average Vision-Related Functioning Score, Change from Baseline, Mean ([4]; Week 16, N = 23, SD 0.56, p-value 0.08): −0.23; PSLQ Average Vision-Related Functioning Score, Change from Baseline, Mean ([4]; Week 24, N = 23, SD 1.1, p-value 0.617): −0.11; Concentrations of Cholesterol in CDs Solution ([1]; CD 10% (w/v) in water): 820000 ng/mL |
| OC[C@H]1O[C@@H]2O[C@H]3[C@H](O)[C@@H](O)[C@@H](O[C@H]4[C@H](O)[C@@H](O)[C@@H](O[C@H]5[C@H](O)[C@@H](O)[C@@H](O[C@H]6[C@H](O)[C@@H](O)[C@@H](O[C@H]7[C@H](O)[C@@H](O)[C@@H](O[C@H]8[C@H](O)[C@@H](O)[C@@H](O[C@H]1[C@H](O)[C@H]2O)O[C@@H]8CO)O[C@@H]7CO)O[C@@H]6CO)O[C@@H]5CO)O[C@@H]4CO)O[C@@H]3CO [BCD, beta-cyclodextrin] | – | – | – | do not form soluble complexes with cholesterol | – |
| OC[C@H]1O[C@@H]2O[C@H]3[C@H](O)[C@@H](O)[C@@H](O[C@H]4[C@H](O)[C@@H](O)[C@@H](O[C@H]5[C@H](O)[C@@H](O)[C@@H](O[C@H]6[C@H](O)[C@@H](O)[C@@H](O[C@H]7[C@H](O)[C@@H](O)[C@@H](O[C@H]1[C@H](O)[C@H]2O)O[C@@H]7CO)O[C@@H]6CO)O[C@@H]5CO)O[C@@H]4CO)O[C@@H]3CO [ACD, alpha-cyclodextrin] | – | – | 0 | do not form soluble complexes with cholesterol | – |
| OC[C@H]1O[C@@H]2O[C@H]3[C@H](O)[C@@H](O)[C@@H](O[C@H]4[C@H](O)[C@@H](O)[C@@H](O[C@H]5[C@H](O)[C@@H](O)[C@@H](O[C@H]6[C@H](O)[C@@H](O)[C@@H](O[C@H]7[C@H](O)[C@@H](O)[C@@H](O[C@H]8[C@H](O)[C@@H](O)[C@@H](O[C@H]9[C@H](O)[C@@H](O)[C@@H](O[C@H]1[C@H](O)[C@H]2O)O[C@@H]9CO)O[C@@H]8CO)O[C@@H]7CO)O[C@@H]6CO)O[C@@H]5CO)O[C@@H]4CO)O[C@@H]3CO [GCD, gamma-cyclodextrin] | – | – | 0 | do not form soluble complexes with cholesterol | – |
| 2-hydroxypropyl-alpha-cyclodextrin [HP-ACD, reference compound] | no detectable cholesterol dissolving activity | – | – | – | – |
